Values quoted from earlier work as cited in patent publication US20110047631A1, “HEAT SHOCK PROTEIN DEFICIENCIES AS MODEL SYSTEMS FOR BRAIN PATHOLOGY AND CANCER” (Medical College of Georgia Research Institute Inc., priority 2009, published 2011).

Legend:
[1] = tested on: mouse models of Amyotrophic Lateral Sclerosis (ALS)
[2] = 8 mg/kg per mice daily dose

SMILES: CC1=C(O)C(=O)C=C2C1=CC=C1[C@@]2(C)CC[C@@]2(C)[C@@H]3C[C@](C)(C(=O)O)CC[C@]3(C)CC[C@]12C [Celasterol]
- expression of Hsps (Hsps): enhance the expression of Hsps
- neuronal cell death and life span [1]: block neuronal cell death and extend the life of these mice
- toxicity [2]: no toxicity
